This is an account of results in article PMC7424564 (Pharmacology Research & Perspectives, 2020).

One may read the IC50 as the concentration that gives 50% inhibition.

One data set concerns mutant BTK (C481S). The note with it: cited from earlier work.
The subject of another data set is TMD8 cells. Nature of the data set: Cell washout cytotoxicity assay. Conditions: TMD‐8 cells; 100 nmol/L.
A further data set relates to U2932 cell line. The note with it: cited from earlier work.
A further data set relates to IL‐6. The note with it: read-out: IC50 for IL‐6 inhibition; in‐vitro assays; cited from earlier work.
Another data set concerns arthritis. Conditions: cited from earlier work.

Entries after “also recorded” stand apart in the source; their conditions may differ.

For the compound `CC#CC(=O)N1CCC[C@H]1c1nc(-c2ccc(C(=O)Nc3ccccn3)cc2)c2c(N)nccn12` [ACP‐196], in the data set with mutant BTK (C481S), the “activity for the mutant BTK” value is reported as “appreciable activity”.

As to `CC#CC(=O)N1CC[C@@H](n2c(=O)n(-c3ccc(Oc4ccccc4)cc3)c3c(N)ncnc32)C1` [ONO/GS‐4050], the “activity for the mutant BTK” value in the data set on mutant BTK (C481S) was “appreciable activity”. As to `Cc1nc(Nc2ncc(C(=O)Nc3c(C)cccc3Cl)s2)cc(N2CCN(CCO)CC2)n1` [dasatinib], in the data set with TMD8 cells, the “cytotoxic effect after drug wash‐off” value is given as “failed to exert its effect when washed off; also recorded: completely lost its cytotoxic potential”. `C=CC(=O)N1CCC[C@@H](n2nc(-c3ccc(Oc4ccccc4)cc3)c3c(N)ncnc32)C1` [ibrutinib]: the half-inhibitory concentration (IC50) is 1 µM in the data set on mutant BTK (C481S) (read-out: IC50 mutant BTK, C481S) and 0.0039 µM in the data set on IL‐6. Further, the “sensitivity of U2932 cell line to cytotoxicity” value in the data set with U2932 cell line was “resistant”. Besides, the “ED50 anti‐arthritic activity” value with arthritis was 2.6 mg/kg/day.
